# From US12180207B2 (ARRAY BIOPHARMA INC., priority 2018, dated 2024)
# What was measured:
# [1] = target: phosphorylated FGFR3 (SEQ ID NO: 5, amino acids 449 to 759) (Homo sapiens (Human), UniProt P22607); test: FGFR enzyme binding assay (HTRF tracer displacement), FGFR3; details: 5 nM phosphorylated FGFR3, average of multiple determinations if made
# Procedure, shortened: (§1)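 Kinase and tracer were incubated with compound for 60 minutes at 22° C. Tracer displacement was then measured by HTRF, and results were expressed as POC with 1 μM control inhibitor defining full displacement.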
# [2] = target: recombinant human FGFR2 cytoplasmic domain (amino acids 403-822) (Homo sapiens (Human), UniProt P21802); test: FGFR2 enzyme activity assay (LanthaScreen TR-FRET); type: biochemical; details: 15 μM ATP, 20 min incubation at 22° C., average of multiple determinations if made, read-out: FGFR2 Enz FRET IC50
# Procedure, shortened: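 Substrate phosphorylation was read by TR-FRET using Eu-PY20 antibody (60 min, 22 °C) after a 20 min, 22 °C reaction. The reaction used 15 μM ATP, 100 nM fluorescent poly-GT peptide and His-tagged FGFR2 403-822 ([…]) at pH 7.5 with 2% DMSO.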
# [3] = target: dephosphorylated FGFR1 (SEQ ID NO: 1, amino acids 458 to 765) (Homo sapiens (Human), UniProt P11362); test: FGFR enzyme binding assay (HTRF tracer displacement), FGFR1; details: 5 nM dephosphorylated FGFR1, average of multiple determinations if made
# Procedure, shortened: as §1
# [4] = target: HEK-293 cells transfected with dox-inducible human wild type FGFR3 (Homo sapiens (Human), UniProt P22607); test: FGFR3 pERK cell assay; type: cell-based; details: HEK-293 dox-inducible FGFR3, 1 hour compound, 100 ng/ml FGF-acidic; maximum concentration 5 μM
# Procedure, shortened: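 Doxycycline-induced cells preincubated 1 h at 37 °C with compound (1:3 dilutions, top 5 μM final), then stimulated 5 min with 100 ng/ml FGF-acidic. Lysate phospho-ERK1/2 measured by MSD sandwich assay; IC50 at 50 POC from 4-parameter fit, normalised to no-compound and control-compound wells.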
# [5] = target: HEK-293 cells transfected with dox-inducible human wild type FGFR1 (Homo sapiens (Human), UniProt P11362); test: FGFR1 pERK cell assay; type: cell-based; details: HEK-293 dox-inducible FGFR1, 1 hour compound, 100 ng/ml FGF-acidic; maximum concentration 5 μM
# Procedure, shortened: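 In HEK-293 cells with dox-induced human wild-type FGFR1, compounds (1:3 dilutions, top 5 μM final) were applied 1 h at 37°C before 5 min stimulation with 100 ng/ml FGF-acidic. Phospho-ERK1/2 measured by MSD sandwich immunoassay; IC50 from 4-parameter fit of POC versus vehicle and control compound.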
# dephosphorylated FGFR1 (SEQ ID NO: 1, amino acids 458 to 765), sequence (P11362 458-765): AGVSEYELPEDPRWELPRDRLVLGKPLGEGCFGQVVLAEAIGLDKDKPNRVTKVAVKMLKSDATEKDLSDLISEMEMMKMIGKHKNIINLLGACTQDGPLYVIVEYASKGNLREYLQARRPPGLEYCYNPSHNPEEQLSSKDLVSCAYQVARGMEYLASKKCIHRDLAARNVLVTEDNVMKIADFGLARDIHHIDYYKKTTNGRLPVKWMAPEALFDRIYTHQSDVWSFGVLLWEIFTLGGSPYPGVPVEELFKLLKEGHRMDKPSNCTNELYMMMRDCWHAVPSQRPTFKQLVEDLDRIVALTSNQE
# phosphorylated FGFR3 (SEQ ID NO: 5, amino acids 449 to 759), sequence (P22607 449-759): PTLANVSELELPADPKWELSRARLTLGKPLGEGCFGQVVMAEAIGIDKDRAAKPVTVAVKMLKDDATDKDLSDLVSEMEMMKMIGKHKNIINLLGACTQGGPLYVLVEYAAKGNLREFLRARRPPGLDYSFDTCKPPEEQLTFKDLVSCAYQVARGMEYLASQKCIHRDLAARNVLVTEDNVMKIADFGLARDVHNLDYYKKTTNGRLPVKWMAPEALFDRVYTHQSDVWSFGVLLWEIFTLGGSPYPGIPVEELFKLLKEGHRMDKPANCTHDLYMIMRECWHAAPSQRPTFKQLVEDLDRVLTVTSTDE
# HEK-293 cells transfected with dox-inducible human wild type FGFR1, sequence (P11362 22-822): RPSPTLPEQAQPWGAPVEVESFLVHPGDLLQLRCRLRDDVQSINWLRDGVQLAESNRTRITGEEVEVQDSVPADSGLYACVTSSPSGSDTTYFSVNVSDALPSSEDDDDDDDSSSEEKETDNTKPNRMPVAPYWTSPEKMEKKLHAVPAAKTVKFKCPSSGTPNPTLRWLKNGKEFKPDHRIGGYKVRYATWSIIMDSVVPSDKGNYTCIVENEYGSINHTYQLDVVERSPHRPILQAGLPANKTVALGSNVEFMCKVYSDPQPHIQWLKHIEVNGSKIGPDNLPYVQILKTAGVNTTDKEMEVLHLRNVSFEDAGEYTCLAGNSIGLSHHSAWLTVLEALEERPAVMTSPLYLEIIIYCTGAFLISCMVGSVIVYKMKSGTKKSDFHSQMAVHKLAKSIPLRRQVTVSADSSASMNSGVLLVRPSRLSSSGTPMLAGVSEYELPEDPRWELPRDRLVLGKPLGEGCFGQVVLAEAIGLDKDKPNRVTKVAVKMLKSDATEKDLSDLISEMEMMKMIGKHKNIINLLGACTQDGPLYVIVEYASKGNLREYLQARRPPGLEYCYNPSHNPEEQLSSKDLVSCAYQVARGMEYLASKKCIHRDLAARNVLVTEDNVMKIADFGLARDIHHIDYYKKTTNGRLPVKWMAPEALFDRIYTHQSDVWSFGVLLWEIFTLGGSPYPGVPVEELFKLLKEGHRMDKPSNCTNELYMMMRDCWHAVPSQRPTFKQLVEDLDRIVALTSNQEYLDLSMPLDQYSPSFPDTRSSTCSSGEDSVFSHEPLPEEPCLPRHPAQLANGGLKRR
# HEK-293 cells transfected with dox-inducible human wild type FGFR3, sequence (P22607 23-806): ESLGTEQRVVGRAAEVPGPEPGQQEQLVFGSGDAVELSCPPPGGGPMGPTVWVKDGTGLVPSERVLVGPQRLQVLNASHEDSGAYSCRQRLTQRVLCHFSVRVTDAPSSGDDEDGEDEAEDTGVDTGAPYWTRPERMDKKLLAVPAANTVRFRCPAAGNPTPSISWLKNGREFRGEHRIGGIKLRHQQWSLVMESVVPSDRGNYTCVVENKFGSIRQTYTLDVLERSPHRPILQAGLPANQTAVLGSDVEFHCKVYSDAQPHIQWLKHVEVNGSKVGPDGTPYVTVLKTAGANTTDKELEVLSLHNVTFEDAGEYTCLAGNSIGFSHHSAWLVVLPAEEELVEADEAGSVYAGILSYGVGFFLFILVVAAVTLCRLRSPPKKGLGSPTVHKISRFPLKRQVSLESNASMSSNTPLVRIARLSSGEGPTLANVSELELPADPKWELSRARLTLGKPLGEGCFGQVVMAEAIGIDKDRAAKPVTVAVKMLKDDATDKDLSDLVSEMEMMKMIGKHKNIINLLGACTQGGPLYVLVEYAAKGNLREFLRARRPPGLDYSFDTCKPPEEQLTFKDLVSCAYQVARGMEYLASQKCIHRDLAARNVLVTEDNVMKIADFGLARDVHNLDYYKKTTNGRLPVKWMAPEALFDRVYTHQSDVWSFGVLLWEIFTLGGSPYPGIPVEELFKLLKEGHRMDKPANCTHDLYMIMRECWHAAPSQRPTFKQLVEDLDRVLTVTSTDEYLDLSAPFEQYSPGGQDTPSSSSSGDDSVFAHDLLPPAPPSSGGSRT
# recombinant human FGFR2 cytoplasmic domain (amino acids 403-822), sequence (P21802 402-821): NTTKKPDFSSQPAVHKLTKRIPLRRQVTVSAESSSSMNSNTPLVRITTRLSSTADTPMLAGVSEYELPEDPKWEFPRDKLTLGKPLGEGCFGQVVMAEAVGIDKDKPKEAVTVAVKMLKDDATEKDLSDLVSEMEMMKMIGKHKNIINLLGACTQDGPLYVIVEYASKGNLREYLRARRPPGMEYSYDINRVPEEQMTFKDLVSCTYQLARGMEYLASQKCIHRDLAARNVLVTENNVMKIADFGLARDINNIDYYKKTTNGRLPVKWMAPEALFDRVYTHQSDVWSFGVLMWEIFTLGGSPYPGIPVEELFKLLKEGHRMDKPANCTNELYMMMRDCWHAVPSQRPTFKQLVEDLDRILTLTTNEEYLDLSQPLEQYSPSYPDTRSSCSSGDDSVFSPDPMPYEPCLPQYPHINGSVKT
IC50 [1] [nM],IC50 [2] [nM],IC50 [3] [nM],IC50 [4] [nM],IC50 [5] [nM],SMILES
25,454,922,171,3290,"C=CC(=O)N1CC(O)(C(=O)N2CCC(n3ncc(-c4cc(OC)c5c(Cl)cnn5c4)c3C)CC2)C1 [Example 172, 1-(3-(4-(4-(3-chloro-4-methoxypyrazolo [1,5-a]pyridin-6-yl)-5-methyl-1H-pyrazol-1-yl)piperidine-1-carbonyl)-3-hydroxyazetidin-1-yl)prop-2-en-1-one]"
48,69,1720,357,1440,"CCc1c(-c2cc(OC)c3c(C#N)cnn3c2)cnn1C1CCN(C(=O)C2(F)CN(C(=O)/C=C/CN(C)C)C2)CC1 [Example 162, (E)-6-(1-(1-(1-(4-(dimethylamino)but-2-enoyl)-3-fluoroazetidine-3-carbonyl)piperidin-4-yl)-5-ethyl-1H-pyrazol-4-yl)-4-methoxypyrazolo [1,5-a]pyridine-3-carbonitrile]"
19,19,141,164,1230,"C=CC(=O)N1CC(C(=O)N2CCN(c3cnc(-c4cc(OC)c5c(C#N)cnn5c4)cn3)CC2)C1 [Example 116, 6-(5-(4-(1-acryloylazetidine-3-carbonyl)piperazin-1-yl)pyrazin-2-yl)-4-methoxypyrazolo[1,5-a]pyridine-3-carbonitrile]"
16,179,571,481,3280,"COc1cc(-c2cnn(C3CN(C(=O)C4(F)CN(C(=O)/C=C/CN(C)C)C4)C3)c2C)cn2ncc(C#N)c12 [Example 160, (E)-6-(1-(1-(1-(4-(dimethylamino)but-2-enoyl)-3-fluoroazetidine-3-carbonyl)azetidin-3-yl)-5-methyl-1H-pyrazol-4-yl)-4-methoxypyrazolo [1,5-a]pyridine-3-carbonitrile]"
9,11,62,244,955,"C=CC(=O)N1CC(C(=O)N2C[C@@H]3C[C@H]2CN3c2ccc(-c3cc(OC)c4c(C#N)cnn4c3)cn2)C1 [Example 106, 6-(6-((1S,4S)-5-(1-acryloylazetidine-3-carbonyl)-2,5-diazabicyclo[2.2.1]heptan-2-yl)pyridin-3-yl)-4-methoxypyrazolo[1,5-a]pyridine-3-carbonitrile]"
1,3,22,236,1600,"COc1cc(-c2cnn(C3CCN(C(=O)C4CN(C(=O)C#CCO)C4)CC3)c2)cn2ncc(C#N)c12 [Example 179, 6-(1-(1-(1-(4-hydroxybut-2-ynoyl)azetidine-3-carbonyl)piperidin-4-yl)-1H-pyrazol-4-yl)-4-methoxypyrazolo[1,5-a]pyridine-3-carbonitrile]"
2,30,168,108,1830,"COc1cc(-c2cnn(C3CCN(C(=O)C4(OC)CN(C(=O)/C=C/CN(C)C)C4)CC3)c2C)cn2ncc(C#N)c12 [Example 158, (E)-6-(1-(1-(1-(4-(dimethylamino)but-2-enoyl)-3-methoxyazetidine-3-carbonyl)piperidin-4-yl)-5-methyl-1H-pyrazol-4-yl)-4-methoxypyrazolo [1,5-a]pyridine-3-carbonitrile]"
11,25,90,1240,≥ 5000,"C=CC(=O)N1CC(C(=O)N2CCN(c3ccc(-c4cc(OC)c5c(C#N)cnn5c4)nn3)CC2)C1 [Example 115, 6-(6-(4-(1-acryloylazetidine-3-carbonyl)piperazin-1-yl)pyridazin-3-yl)-4-methoxypyrazolo[1,5-a]pyridine-3-carbonitrile]"
